{
  "source": "patent US6562869B1",
  "about": "“Nutritional supplement for increased energy and stamina” (Juvenon, Inc., priority 1999, dated 2003)",
  "origin": "cited, not measured here",
  "key": {"[1]": {"system": "human plasma LDL phospholipids", "conditions": "healthy Finnish men and women aged 28-77, supplementation"}, "striatal nerves": {"system": "striatal nerves", "conditions": "Q10 diet four weeks before and one week after MPTP"}, "senescent myocardium": {"system": "senescent myocardium", "conditions": "rats"}, "apoptosis": {"system": "apoptosis", "conditions": "through its action in the mitochondria"}, "[2]": {"conditions": "daily up to 200 mg for 6 to 12 months and 100 mg daily for up to 6 years"}, "[3]": {"set-up": "dose or concentration left out as unconfirmed", "conditions": "woman deficient in Q10"}, "[4]": {"system": "oxidative phosphorylation in skeletal muscles and brains", "conditions": "patients with mitochondrial cytopathies due to enzyme defects"}, "male mice": {"system": "male mice", "conditions": "life-long supplementation"}, "[5]": {"system": "carnitine-acyl-carnitine exchange across the inner mitochondrial membrane"}, "oxidant production": {"system": "oxidant production", "conditions": "carnitine supplementation"}, "skeletal muscle": {"system": "skeletal muscle", "conditions": "older individuals aged 40-73, 20 g/day, one week"}, "[6]": {"conditions": "men over 60, 5 days"}, "[7]": {"conditions": "older adults 67-80 years, 8 weeks"}},
  "note": "Where two headings read alike, the source gives them in different places.",
  "data": [
    {"smiles": "COC1=C(OC)C(=O)C(C/C=C(\\C)CC/C=C(\\C)CC/C=C(\\C)CC/C=C(\\C)CC/C=C(\\C)CC/C=C(\\C)CC/C=C(\\C)CC/C=C(\\C)CC/C=C(\\C)CCC=C(C)C)=C(C)C1=O", "note": "[Example Q10, Coenzyme Q10]", "values": [
      {"measurement": "peroxyl radical trapping capacity", "setting": "[1]", "value": "doubled"},
      {"measurement": "heart functions", "setting": "heart functions; old rats", "value": "improve heart functions"},
      {"measurement": "heart functions", "setting": "heart functions; young rats", "value": "not significantly affect"},
      {"measurement": "tolerance of the senescent myocardium to aerobic and ischemic stress", "setting": "human atrial tissue", "value": "improves the tolerance"},
      {"measurement": "dopamine, higher than control diet", "setting": "striatal nerves", "value": 37, "unit": "%"},
      {"measurement": "more dense neurons than control diet", "setting": "striatal nerves", "value": 62, "unit": "%"},
      {"measurement": "tolerance of the senescent myocardium to aerobic and ischemic stress", "setting": "senescent myocardium", "value": "improves the tolerance"},
      {"measurement": "programmed cell death, or apoptosis", "setting": "apoptosis", "value": "appears to block"},
      {"measurement": "adverse effects", "setting": "[2]", "value": "No important adverse effects"},
      {"measurement": "effects of doxorubicin", "setting": "cardiac tissue; cardiac tissue", "value": "blocks the effects of doxorubicin"},
      {"measurement": "clinical response", "setting": "[3]", "value": "rapidly improved"},
      {"measurement": "oxidative phosphorylation in skeletal muscles and brains", "setting": "[4]", "value": "marked improvement"},
      {"measurement": "lifespan", "setting": "male mice", "value": "did not prolong or shorten"},
      {"measurement": "Q10 levels in kidney, heart and brain", "setting": "male rats; Q10 supplementation", "value": "not affected"},
      {"measurement": "lifespan", "setting": "male rats; life-long supplementation, rats", "value": "did not prolong or shorten"},
      {"measurement": "plasma and liver Q10 levels", "setting": "male rats; supplemented rats", "value": "2.6-8.4 times higher"}
    ]},
    {"smiles": "C[N+](C)(C)C[C@H](O)CC(=O)[O-]", "note": "[L-carnitine]", "values": [
      {"measurement": "age-related dysfunction of carnitine-acyl-carnitine exchange", "setting": "[5]", "value": "slow or reverse"}
    ]},
    {"smiles": "O=C(O)CCCC[C@@H]1CCSS1", "note": "[R-α-lipoic acid]", "values": [
      {"measurement": "ambulatory activity of aged rats", "setting": "aged rats; aged rats", "value": "triple"},
      {"measurement": "age-related decline in mitochondrial membrane potential", "setting": "aged rats; supplementation", "value": "restore"},
      {"measurement": "age-related decrease in oxygen consumption", "setting": "aged rats; supplementation", "value": "reverse"},
      {"measurement": "age-related increase in oxidants", "setting": "aged rats; supplementation", "value": "significantly lower"},
      {"measurement": "glutathione and ascorbic acid levels", "setting": "aged rats; supplementation", "value": "to youthful levels"}
    ]},
    {"smiles": "CC(=O)O[C@H](CC(=O)[O-])C[N+](C)(C)C", "note": "[acetyl-L-carnitine]", "values": [
      {"measurement": "age-related dysfunction of carnitine-acyl-carnitine exchange", "setting": "[5]", "value": "slow or reverse"}
    ]},
    {"smiles": "C[N+](C)(C)CC(O)CC(=O)[O-]", "note": "(centres unmarked) [carnitine]", "values": [
      {"measurement": "cell antioxidants", "setting": "oxidant production", "value": "decreased cell antioxidants markedly"},
      {"measurement": "oxidant production increase", "setting": "oxidant production", "value": 30, "unit": "%"}
    ]},
    {"smiles": "CN(CC(=O)O)C(=N)N", "note": "[creatine]", "values": [
      {"measurement": "skeletal muscle strength and endurance", "setting": "skeletal muscle", "value": "increased"},
      {"measurement": "isokinetic performance and body mass", "setting": "[6]", "value": "only small increases"},
      {"measurement": "isometric strength", "setting": "[6]", "value": "no effect"},
      {"measurement": "1- and 12-repetitions maxima, effect of creatine supplementation", "setting": "[7]", "value": "no beneficial effect"},
      {"measurement": "safety", "setting": "about 1.5 g/day to about 25 g/day for at least a year", "value": "safe"},
      {"measurement": "adverse effects", "setting": "athletes, doses up to 75 grams a day for years, aside from weight gain", "value": "without known adverse effects"},
      {"measurement": "time to exhaustion", "setting": "phosphocreatine (PCr); both groups combined", "value": "increased"},
      {"measurement": "resting PCr increase", "setting": "phosphocreatine (PCr); middle-aged group (50-year-olds), P<0.05", "value": 30, "unit": "%"},
      {"measurement": "mean initial PCr resynthesis rate", "setting": "phosphocreatine (PCr); middle-aged group, P<0.05", "value": "increased significantly"},
      {"measurement": "resting PCr increase", "setting": "phosphocreatine (PCr); young group (30-year-olds), P<0.05", "value": 15, "unit": "%"}
    ]},
    {"smiles": "COc1cccc2c1C(=O)c1c(O)c3c(c(O)c1C2=O)C[C@@](O)(C(=O)CO)C[C@@H]3O[C@H]1C[C@H](N)[C@H](O)[C@H](C)O1", "note": "[doxorubicin]", "values": [
      {"measurement": "mitochondrial oxidant production", "setting": "cardiac tissue", "value": "stimulates"},
      {"measurement": "mtDNA deletions in cardiac tissue", "setting": "cardiac tissue; cardiac tissue", "value": "marked increase"}
    ]},
    {"smiles": "COc1c(O)c(C)c(C/C=C(\\C)CC/C=C(\\C)CC/C=C(\\C)CC/C=C(\\C)CC/C=C(\\C)CC/C=C(\\C)CC/C=C(\\C)CC/C=C(\\C)CC/C=C(\\C)CCC=C(C)C)c(O)c1OC", "note": "[ubiquinol-10]", "values": [
      {"measurement": "oxidative damage to DNA of human lymphocytes", "setting": "human lymphocytes", "value": "appears to protect"}
    ]}
  ]
}
